In US20230278972A1, “SUBSTITUTED HALOALKYL SULFONANILIDE HERBICIDES” (FMC Corporation, priority 2020, published 2023):

Experiments:
Assay type in all cases: in vivo
[1] = test system: blackgrass (Alopecurus myosuroides); assay: Test A1 preemergence, blackgrass
In short: (§1)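 Herbicidal response was scored on plants treated either preemergence, by directed spray onto soil of a loam–sand blend after sowing, or postemergence on potted plants at the one- to two-leaf stage, 2–10 cm high. Test chemicals were carried in a non-phytotoxic solvent mix with surfactant.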

[2] = test system: corn (Zea mays); assay: Test A1 postemergence, corn; details: Postemergence
In short: as §1

[3] = test system: soybean (Glycine max); assay: Test A1 preemergence, soybean
In short: as §1

[4] = test system: horseweed (Erigeron canadensis); assay: Test A1 postemergence, horseweed; details: Postemergence
In short: as §1

[5] = test system: goosegrass (Eleusine indica); assay: Test A1 preemergence, goosegrass
In short: as §1

[6] = test system: Pigweed, Palmer (palmer amaranth, palmer pigweed, Amaranthus palmeri); assay: Test A1 preemergence, Pigweed, Palmer
In short: as §1

[7] = test system: goosegrass (Eleusine indica); assay: Test A1 postemergence, goosegrass; details: Postemergence
In short: as §1

[8] = test system: Ryegrass, Italian (Italian ryegrass, Lolium multiflorum); assay: Test A1 postemergence, Ryegrass, Italian; details: Postemergence
In short: as §1

[9] = 31 g ai/ha, 0 to 100 scale (0 no effect, 100 complete control)
[10] = 125 g ai/ha, 0 to 100 scale, 0 no effect, 100 complete control
[11] = 31 g ai/ha, 0 to 100 scale (0 no effect, 100 complete control), 10 days

Row | Compound | Plant response rating, Blackgrass [1, 9] | Plant response rating, Blackgrass [1, 10] | Plant response rating, Corn [2, 11] | Plant response rating, Corn ([2]; 125 g ai/ha, 0 to 100 scale) | Plant response rating, Soybean [3, 9] | Plant response rating, Soybean [3, 10] | Plant response rating, Horseweed [4, 11] | Plant response rating, Horseweed ([4]; 125 g ai/ha, 0 to 100 scale) | Plant response rating, Goosegrass [5, 9] | Plant response rating, Goosegrass [5, 10] | Plant response rating, Pigweed, Palmer [6, 9] | Plant response rating, Pigweed, Palmer [6, 10] | Plant response rating, Goosegrass [7, 11] | Plant response rating, Goosegrass ([7]; 125 g ai/ha, 0 to 100 scale) | Plant response rating, Ryegrass, Italian [8, 11] | Plant response rating, Ryegrass, Italian ([8]; 125 g ai/ha, 0 to 100 scale)
1 | Cc1c(C(=O)N2CCCCC2)cc(NS(=O)(=O)C(F)(F)F)c(Cl)c1F [Compound 333] | 0 | 0 | 0 | 0 | 40 | 60 | 0 | 30 | 80 | 80 | 90 | 100 | 0 | 30 | 0 | 0
2 | COC1CCCN(C(=O)c2cc(NS(=O)(=O)C(F)(F)F)c(Cl)c(F)c2C)C1 (stereo not shown) [Compound 334] | 10 | 10 | 0 | 0 | 0 | 30 | 0 | 30 | 70 | 90 | 20 | 70 | 0 | 0 | 0 | 0
3 | Cc1c(C2=NO[C@@H]3CCC[C@H]23)cc(N(COC(=O)C(C)(C)C)S(=O)(=O)C(F)(F)F)c(C)c1C [Compound 336, [[(Trifluoromethyl)sulfonyl][2,3,4-trimethyl-5-[(3aR,6aR)-3a,5,6,6a-tetrahydro-4H-cyclopent[d]isoxazol-3-yl]phenyl]amino]methyl 2,2-dimethylpropanoate] | 0 | 0 | 0 | 0 | 0 | 0 | 0 | 60 | 30 | 70 | 60 | 100 | 0 | 0 | 0 | 0
4 | CCOC1CC(c2cc(N(COC(=O)C(C)(C)C)S(=O)(=O)C(F)(F)F)c(C)cc2C)=NO1 (stereo not shown) [Compound 339] | 0 | 0 | 0 | 30 | 0 | 0 | 100 | 100 | 0 | 90 | 30 | 100 | 0 | 30 | 0 | 50
5 | Cc1cc(C)c(C2=NOC3OCCC23)cc1NS(=O)(=O)C(F)(F)F (stereo not shown) [Compound 349] | 50 | 80 | 40 | 90 | 20 | 60 | 90 | 100 | 90 | 100 | 100 | 100 | 90 | 90 | 60 | 90
6 | Cc1cc(C)c(N(COC(=O)C(C)(C)C)S(=O)(=O)C(F)(F)F)cc1C(=O)N1CCC(F)(F)CC1 [Compound 350] | 0 | 0 | 0 | 0 | 0 | 0 | 90 | 100 | 30 | 90 | 20 | 60 | 10 | 80 | 30 | 30
7 | CCOC(=O)N(c1cc(C(=O)N2CCC(F)(F)CC2)c(C)cc1C)S(=O)(=O)C(F)(F)F [Compound 351] | 10 | 50 | 0 | 70 | 20 | 30 | 100 | 90 | 40 | 100 | 80 | 90 | 40 | 90 | 20 | 50
